Consider 18 molecules from ChEMBL document CHEMBL1908284, “Rational use of in vitro P-glycoprotein assays in drug discovery” (J Pharmacol Exp Ther, 2001).

Data set [1] addresses T1, ATP-dependent translocase ABCB1 (MDR1) (Homo sapiens, UniProt P08183). Put plainly: in vitro. To be noted: dog.
In data set [2] the target is T1, ATP-dependent translocase ABCB1 (MDR1). Nature of the data set: in vitro. To be noted: dog. This is another data set of the same source.
The target in data set [3] is T2, ATP-dependent translocase ABCB1 (Homo sapiens, UniProt P08183). To be noted: spodoptera frugiperda, sf9, 20 µM.
Data set [4] addresses T1, ATP-dependent translocase ABCB1 (MDR1). Nature of the data set: in vitro. The conditions noted are these: dog. This is another data set of the same source.
The target in data set [5] is T2, ATP-dependent translocase ABCB1. Put plainly: TP_TRANSPORTER: ATP hydrolysis in MDR1-expressing Sf9 cells. The format is functional.

A value given as a limit tells only on which side of the number the result lay.
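Wherever Ratio ATPase activity is given: Compound-stimulated ATPase activity measured in membrane preparations of MDR1-expressing Sf9 cells.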

T1 sequence (P08183 whole entry): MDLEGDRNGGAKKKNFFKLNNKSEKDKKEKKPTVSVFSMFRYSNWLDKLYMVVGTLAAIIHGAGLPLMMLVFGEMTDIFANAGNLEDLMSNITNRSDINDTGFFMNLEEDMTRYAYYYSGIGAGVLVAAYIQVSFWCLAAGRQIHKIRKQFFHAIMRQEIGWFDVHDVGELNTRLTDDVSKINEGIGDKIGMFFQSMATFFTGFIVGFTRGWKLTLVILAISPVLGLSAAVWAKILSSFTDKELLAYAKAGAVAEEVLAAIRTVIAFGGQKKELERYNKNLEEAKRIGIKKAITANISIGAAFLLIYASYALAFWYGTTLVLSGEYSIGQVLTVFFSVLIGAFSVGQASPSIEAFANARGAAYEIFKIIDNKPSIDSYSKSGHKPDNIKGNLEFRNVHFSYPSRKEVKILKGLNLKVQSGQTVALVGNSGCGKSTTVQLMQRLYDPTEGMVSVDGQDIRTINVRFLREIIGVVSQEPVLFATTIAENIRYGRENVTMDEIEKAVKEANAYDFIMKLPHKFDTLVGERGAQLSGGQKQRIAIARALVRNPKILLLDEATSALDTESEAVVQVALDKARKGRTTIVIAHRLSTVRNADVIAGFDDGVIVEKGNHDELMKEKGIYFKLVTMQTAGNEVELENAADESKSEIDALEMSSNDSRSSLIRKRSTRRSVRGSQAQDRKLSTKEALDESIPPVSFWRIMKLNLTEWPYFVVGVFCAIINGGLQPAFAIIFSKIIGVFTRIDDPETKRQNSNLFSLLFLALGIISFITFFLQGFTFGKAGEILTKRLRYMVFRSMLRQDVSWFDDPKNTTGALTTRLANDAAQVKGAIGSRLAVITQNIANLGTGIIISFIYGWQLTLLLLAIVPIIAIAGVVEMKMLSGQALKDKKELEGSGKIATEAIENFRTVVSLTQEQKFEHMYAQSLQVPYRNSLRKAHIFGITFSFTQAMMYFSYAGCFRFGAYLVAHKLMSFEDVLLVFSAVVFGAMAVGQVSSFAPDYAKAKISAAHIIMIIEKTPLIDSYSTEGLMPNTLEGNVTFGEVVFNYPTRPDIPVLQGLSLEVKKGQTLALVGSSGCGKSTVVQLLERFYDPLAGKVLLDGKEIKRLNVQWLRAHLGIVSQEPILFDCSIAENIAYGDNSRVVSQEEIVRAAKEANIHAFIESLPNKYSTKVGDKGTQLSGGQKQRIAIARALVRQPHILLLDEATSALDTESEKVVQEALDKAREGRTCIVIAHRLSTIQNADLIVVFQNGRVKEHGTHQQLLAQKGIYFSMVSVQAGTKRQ
T2 sequence (P08183 whole entry): as above

In turn, `COc1cc([C@@H]2c3cc4c(cc3[C@@H](O[C@@H]3O[C@@H]5CO[C@@H](C)O[C@H]5[C@H](O)[C@H]3O)[C@H]3COC(=O)[C@H]23)OCO4)cc(OC)c1O` [ETOPOSIDE] came in with a Papp A→B in data set [1] (MDCK-MDR1, Papp) of 2.14 ×10⁻⁶ cm/s. In data set [2] (MDCK-MDR1, Papp), the basolateral-to-apical permeability (Papp B→A) turned out to be 6.06 ×10⁻⁶ cm/s.
On to `CCC(C)n1ncn(-c2ccc(N3CCN(c4ccc(OCC5COC(Cn6cncn6)(c6ccc(Cl)cc6Cl)O5)cc4)CC3)cc2)c1=O` (stereo not drawn) [ITRACONAZOLE], for which the apparent permeability from apical to basolateral (Papp A→B) in data set [1] (MDCK-MDR1, Papp) is 57.1 ×10⁻⁶ cm/s. In data set [3], the Ratio_ATPase activity is listed as 1.2. In data set [4] (MDCK-MDR1, Ratio_Papp), the efflux ratio stood at 0.97. In data set [2] (MDCK-MDR1, Papp), the Papp B→A turned out to be 55.2 ×10⁻⁶ cm/s.
The molecule `CN(C)C(=O)C(CCN1CCC(O)(c2ccc(Cl)cc2)CC1)(c1ccccc1)c1ccccc1` [LOPERAMIDE] showed an apparent permeability from apical to basolateral (Papp A→B) in data set [1] (MDCK-MDR1) of 9.98 ×10⁻⁶ cm/s. This molecule also yielded a Ratio_ATPase activity in data set [3] of 3.75. In addition, in data set [4] (MDCK-MDR1), the efflux ratio was determined as 7.77. This molecule also returned a Papp B→A in data set [2] (MDCK-MDR1) of 77.6 ×10⁻⁶ cm/s.
In data set [1] (MDCK-MDR1, Papp), `CN(Cc1cnc2nc(N)nc(N)c2n1)c1ccc(C(=O)N[C@@H](CCC(=O)O)C(=O)O)cc1` [METHOTREXATE] came in with a Papp A→B of 1.05 ×10⁻⁶ cm/s. This molecule also registered a Ratio_ATPase activity in data set [3] of 0.91. For the same molecule, the efflux ratio in data set [4] (MDCK-MDR1, Ratio_Papp) was 0.67. The molecule also showed an apparent permeability from basolateral to apical (Papp B→A) in data set [2] (MDCK-MDR1, Papp) of 0.706 ×10⁻⁶ cm/s.
As to `O=C1c2c(O)ccc(O)c2C(=O)c2c(NCCNCCO)ccc(NCCNCCO)c21` [MITOXANTRONE], the Papp A→B in data set [1] (MDCK-MDR1, Papp) came to 0.191 ×10⁻⁶ cm/s. Besides, the apparent permeability from basolateral to apical (Papp B→A) in data set [2] (MDCK-MDR1, Papp) stood at 0.644 ×10⁻⁶ cm/s.
In data set [1] (MDCK-MDR1), `CC[C@@]1([C@@H]2O[C@@H]([C@H]3O[C@@](O)(CO)[C@H](C)C[C@@H]3C)C[C@@H]2C)CC[C@H]([C@]2(C)CC[C@]3(C[C@H](O)[C@@H](C)[C@@H]([C@@H](C)[C@@H](OC)[C@H](C)C(=O)O)O3)O2)O1` [MONENSIN] displayed a Papp A→B of 10.2 ×10⁻⁶ cm/s. Also, in data set [3], the Ratio_ATPase activity is reported as 6.71. Moreover, in data set [4] (MDCK-MDR1), the efflux ratio turned out to be 2.88. In data set [2] (MDCK-MDR1), this molecule gave a basolateral-to-apical permeability (Papp B→A) of 29.4 ×10⁻⁶ cm/s.
`COC(=O)C1=C(C)NC(C)=C(C(=O)OC)C1c1ccccc1[N+](=O)[O-]` [NIFEDIPINE]: the Activity result in data set [5] is “substrate [+]”.
`CC[C@H]1C(=O)Nc2ccc(F)cc2N1C(=O)OC(C)C` [OPAVIRALINE] returned a Papp A→B in data set [1] (MDCK-MDR1, Papp) of 75.8 ×10⁻⁶ cm/s. Besides, the Ratio_ATPase activity in data set [3] was 1.02. Besides, the efflux ratio in data set [4] (MDCK-MDR1, Ratio_Papp) came to 0.96. This molecule came in with a Papp B→A in data set [2] (MDCK-MDR1, Papp) of 72.6 ×10⁻⁶ cm/s.
In the same order, the values of `CC(=O)Nc1ccc(OCC(O)CNC(C)C)cc1` (stereo not drawn) [PRACTOLOL] are 1.24 ×10⁻⁶ cm/s, 1.42, 1.32 and 1.64 ×10⁻⁶ cm/s.
In data set [1] (MDCK-MDR1, Papp), `COc1cc2nc(N3CCN(C(=O)c4ccco4)CC3)nc(N)c2cc1OC` [PRAZOSIN] registered a Papp A→B of 14.3 ×10⁻⁶ cm/s. Besides, the Ratio_ATPase activity in data set [3] came out at 3.4. Further, the efflux ratio in data set [4] (MDCK-MDR1, Ratio_Papp) was found to be 4.63. For the same molecule, the Papp B→A in data set [2] (MDCK-MDR1, Papp) worked out at 66.1 ×10⁻⁶ cm/s.
`CN(C)C(=O)Oc1ccc[n+](C)c1` [PYRIDOSTIGMINE]: the Papp A→B in data set [1] (MDCK-MDR1) came out at 1.02 ×10⁻⁶ cm/s. In addition, in data set [3], the Ratio_ATPase activity came out at 0.89. Also, the efflux ratio in data set [4] (MDCK-MDR1) stood at 1.24. This molecule returned an apparent permeability from basolateral to apical (Papp B→A) in data set [2] (MDCK-MDR1) of 1.26 ×10⁻⁶ cm/s.
In the case of `C=C[C@H]1C[N@@]2CC[C@H]1C[C@@H]2[C@@H](O)c1ccnc2ccc(OC)cc12` [QUINIDINE], the Papp A→B in data set [1] (MDCK-MDR1, Papp) worked out at 3.64 ×10⁻⁶ cm/s. In addition, the Ratio_ATPase activity in data set [3] is 2.54. In addition, the efflux ratio in data set [4] (MDCK-MDR1, Ratio_Papp) is 27.2. For the same molecule, the Papp B→A in data set [2] (MDCK-MDR1, Papp) was 99 ×10⁻⁶ cm/s.
For `CNC(=C[N+](=O)[O-])NCCSCc1ccc(CN(C)C)o1` [RANITIDINE], in that order: 1.44 ×10⁻⁶ cm/s, 1.23, 1.35 and 1.95 ×10⁻⁶ cm/s.
For `COC(=O)[C@H]1[C@H]2C[C@@H]3c4[nH]c5cc(OC)ccc5c4CCN3C[C@H]2C[C@@H](OC(=O)c2cc(OC)c(OC)c(OC)c2)[C@@H]1OC` [RESERPINE], in that order: 6.81 ×10⁻⁶ cm/s, 3.85, 3.71 and 25.3 ×10⁻⁶ cm/s.
Turning to `CC(C)(C)c1ccc(C(O)CCCN2CCC(C(O)(c3ccccc3)c3ccccc3)CC2)cc1` (stereo not drawn) [TERFENADINE], in data set [1] (MDCK-MDR1, Papp), the Papp A→B came to 6.56 ×10⁻⁶ cm/s. The molecule also had a Papp B→A in data set [2] (MDCK-MDR1, Papp) of 30.6 ×10⁻⁶ cm/s.
In turn, `C[C@]12CC[C@H]3[C@@H](CCC4=CC(=O)CC[C@@]43C)[C@@H]1CC[C@@H]2O` [TESTOSTERONE] returned a Papp A→B in data set [1] (MDCK-MDR1) of 91.6 ×10⁻⁶ cm/s. This molecule displayed a Ratio_ATPase activity in data set [3] of 1.32. Also, the efflux ratio in data set [4] (MDCK-MDR1) was found to be 0.73. The molecule also returned a Papp B→A in data set [2] (MDCK-MDR1) of 66.8 ×10⁻⁶ cm/s.
Regarding `CC[C@]1(O)C[C@@H]2CN(CCc3c([nH]c4ccccc34)[C@@](C(=O)OC)(c3cc4c(cc3OC)N(C)[C@H]3[C@@](O)(C(=O)OC)[C@H](OC(C)=O)[C@]5(CC)C=CCN6CC[C@]43[C@@H]65)C2)C1` [VINBLASTINE], the Papp A→B in data set [1] (MDCK-MDR1, Papp) was less than 1 ×10⁻⁶ cm/s. In addition, the Ratio_ATPase activity in data set [3] was found to be 4.31. Further, in data set [4] (MDCK-MDR1, Ratio_Papp), the efflux ratio is more than 23. For the same molecule, the basolateral-to-apical permeability (Papp B→A) in data set [2] (MDCK-MDR1, Papp) was found to be 23.2 ×10⁻⁶ cm/s.
As for `COC(=O)[C@@H]1[C@H]2C[C@H]3c4[nH]c5ccccc5c4CCN3C[C@@H]2CC[C@@H]1O` [YOHIMBINE], in data set [1] (MDCK-MDR1, Papp), the apical-to-basolateral permeability (Papp A→B) is 42.9 ×10⁻⁶ cm/s. The Ratio_ATPase activity in data set [3] is reported as 1.05. Besides, the efflux ratio in data set [4] (MDCK-MDR1, Ratio_Papp) stood at 1.17. Further, the Papp B→A in data set [2] (MDCK-MDR1, Papp) was found to be 50.1 ×10⁻⁶ cm/s.
